Molecules are shown by their SMILES.

Here are results for 21 compounds from patent EP3053944B1, “METHOD FOR PRODUCING POLYALKYLENE GLYCOL DERIVATIVE HAVING AMINO GROUP AT END, POLYMERIZATION INITIATOR FOR USE IN THE SAME, AND ALCOHOL COMPOUND AS RAW MATERIAL FOR THE POLYMERIZATION INITIATOR” (Shin-Etsu Chemical Co., Ltd., priority 2014, dated 2016).

What all share (assay type): physicochemical
The nature of series [1]: Stability of the initiator when the alkoxide is formed (migration of protective group). Particulars: on synthesis of the alkoxide. The source says:
Since the silicon-oxygen bond is generally stronger than the silicon-nitrogen bond, there is a possibility that exchange reaction between the silicon-nitrogen bond and the silicon-oxygen bond progresses within a molecule during synthesis of a silyl-protected amino group-containing alkoxide in the case in which a five-membered ring or six-membered ring structure containing a silicon-oxygen bond can be formed. Therefore, when polymerization is tried using, for example, a compound represented by the following general formula (0a) as a polymerization initiator, polymerization progresses from the amino group side, not from the alkoxide side, and a target polyalkylene glycol derivative cannot be obtained. In contrast, in the polymerization initiator (for example, the following formulas (1a) and (2a)) represented by the general formulas (1) and/or (2) for use in the present embodiment 2, production of the five-membered or six-membered ring containing a silicon-oxygen bond is suppressed by extending the length of a chain that connects nitrogen and oxygen that constitutes O^-M^+ to 4 or more, so that a stable structure can be formed in a state of being an alkoxide. As a result thereof, polymerization progresses from the alkoxide side, and the target polyalkylene glycol derivative can be obtained. [drawing 36]

Series [2] can be described thus: Solubility of polymerization initiators in polymerization solvents (visual observation). Set-up: key to solubility to polymerization solvents: Toluene / solubility to polymerization solvents: THF: Excellent: In the case in which cloudiness was not observed at all in the solution by visual observation, the initiator was shown as "excellent"; Poor: in the case in which cloudiness was observed or the initiator did not dissolve at all, or in the case in which the initiator decomposed when the alkoxide was formed from the initiator, the initiator was shown as "poor". Particulars: for solubility to polymerization solvents: THF: initiator dissolved in THF at 20 wt.%; for solubility to polymerization solvents: THF / solubility to polymerization solvents: Toluene: visual observation; for solubility to polymerization solvents: Toluene: initiator dissolved in toluene at 20 wt.%; for dissolution in the solvent(s): summary in words of Table 8, THF or toluene, 20 wt.%. The source says: Results of solubility of the initiators 1-2, 6-7, 9-10 and 12, reference initiators 3-5, 8 and 11, and comparative initiators 1 to 8 to polymerization solvents are shown below. THF in each of the products of the initiators 1-2, 6-7, 9-10 and 12, reference initiators 3-5, 8 and 11, and the comparative initiators 1 to 8 synthesized above was distilled away under reduced pressure to extract the polymerization initiators. The results obtained by dissolving each polymerization initiator in each polymerization solvent at a concentration of 20 wt.% are shown. […]

The nature of series [3]: Visual check for salt precipitation and cloudiness in the THF solution after initiator synthesis. The source says:
Among others, as the solvent for use in the [Pre-Step 2], the same solvent as will be used as the polymerization solvent in the subsequent [Step a] as will be described later is preferably used. The reason is because whether the polymerization initiator synthesized in the [Pre-Step 2] dissolves or not in the polymerization solvent for use in the [Step a] can be confirmed in advance during the synthesis of the polymerization initiator in the [Pre-Step 2]. […] […] By confirming whether the precipitation of a salt and […] of the polymerization initiator represented by the general formula (I) in THF, the solubility of the polymerization initiator in the polymerization solvent in the subsequent [Step a] can be confirmed in advance.
In a glove box under a nitrogen atmosphere, […], and after the mineral oil was washed with hexane to be separated, vacuum drying was performed for about two hours to obtain 0.50 g (12.5 mmol) of potassium hydride. Into the flask, 7.71 g of distilled THF was added with a syringe, and 4.44 g (12.8 mmol) of the compound represented by the general formula (iA) was dripped at normal temperature. Stirring was performed at normal temperature for 1 hour and then at 50°C for 2 hours, so that 12.40 g (1.02 mmol/g) of a THF solution of the compound represented by the general formula (IA) was produced. […]

In the case of `CC[Si](CC)(CC)N(CCCO)[Si](CC)(CC)CC` [Comparative initiator 1, reference compound], the “stability of the initiator” value in series [1] is reported as “changes in the position protected by a protective group progressed”. Besides, in series [2], the “solubility to polymerization solvents: THF” value (from here on “solubility … THF”) is “Poor” and the “solubility to polymerization solvents: Toluene” value (“solubility … Toluene” for short) is on record as “Poor”.
`C[Si](C)(C)N(CCCO)[Si](C)(C)C` [Comparative initiator 2, reference compound]: the “stability of the initiator” value in series [1] was “changes in the position protected by a protective group progressed”. For the same compound, in series [2], the “solubility … THF” value is reported as “Poor” and the “solubility … Toluene” value is reported as “Poor”.
Take `C=CCN(CC=C)CCCO` [Comparative initiator 3, reference compound]: in series [2], the “solubility … THF” value is “Poor”, the “solubility … Toluene” value is on record as “Poor” and the “dissolution in the solvent(s)” value was “did not dissolve in the solvents”.
As for `O=C1c2ccccc2C(=O)N1CCCO` [Comparative initiator 4, reference compound], in series [2], the “solubility … THF” value is “Poor”, the “solubility … Toluene” value was “Poor” and the “dissolution in the solvent(s)” value was “did not dissolve in the solvents”.
Turning to `CC(C)(C)[Si](C)(C)NCCCO` [Comparative initiator 5, reference compound], the “stability of the initiator” value in series [1] is on record as “changes in the position protected by a protective group progressed”. In series [2], the “solubility … THF” value is “Poor” and the “solubility … Toluene” value is “Poor”.
Turning to `C[Si]1(C)CC[Si](C)(C)N1CCCO` [Comparative initiator 6, reference compound], the “stability of the initiator” value in series [1] is on record as “changes in the position protected by a protective group progressed”. In addition, in series [2], the “solubility … THF” value is “Poor” and the “solubility … Toluene” value is listed as “Poor”.
`OCCCN(Cc1ccccc1)Cc1ccccc1` [Comparative initiator 7, reference compound]: in series [2], the “solubility … THF” value is recorded as “Poor”, the “solubility … Toluene” value was “Poor” and the “dissolution in the solvent(s)” value is given as “did not dissolve in the solvents”.
Take `CC(C)(C)OC(=O)N(CCCO)C(=O)OC(C)(C)C` [Comparative initiator 8, reference compound]: in series [2], the “solubility … THF” value was “Poor”, the “solubility … Toluene” value was “Poor” and the “dissolution in the solvent(s)” value is “did not dissolve in the solvents”.
As for `CC[Si](CC)(CC)N(CCCOCCO)[Si](CC)(CC)CC` [Initiator 1], the “stability of the initiator” value in series [1] is “stably existed”. Besides, in series [2], the “solubility … THF” value is reported as “Excellent” and the “dissolution in the solvent(s)” value is given as “dissolved in the solvent”.
On to `CC[Si](CC)(CC)N(CCCOCCOCCO)[Si](CC)(CC)CC` [Initiator 2], for which the “stability of the initiator” value in series [1] is reported as “stably existed”. In series [2], the “solubility … THF” value was “Excellent” and the “dissolution in the solvent(s)” value is on record as “dissolved in the solvent”.
For the compound `CC(C)(C)[Si](C)(C)NCCCOCCO` [Initiator 6], in series [1], the “stability of the initiator” value was “stably existed”. For the same compound, in series [2], the “solubility … THF” value is “Excellent” and the “dissolution in the solvent(s)” value is recorded as “dissolved in the solvent”.
Taken in the same sequence, the figures for `C[Si]1(C)CC[Si](C)(C)N1CCCOCCO` [Initiator 7] were “stably existed”, “Excellent” and “dissolved in the solvent”.
For `CC(C)(C)OC(=O)N(CCCOCCO)C(=O)OC(C)(C)C` [Initiator 9], in series [2], the “solubility … THF” value is given as “Excellent” and the “dissolution in the solvent(s)” value is recorded as “dissolved in a solvent”.
Take `CC[Si](CC)(CC)N(CCCCCCO)[Si](CC)(CC)CC` [Initiator 10]: the “stability of the initiator” value in series [1] is reported as “stably existed”. Besides, in series [2], the “solubility … Toluene” value is “Excellent” and the “dissolution in the solvent(s)” value was “dissolved in the solvent”.
On the same counts, the results for `C[Si]1(C)CC[Si](C)(C)N1CCCCCCO` [Initiator 12] are “stably existed”, “Excellent” and “dissolved in the solvent”.
On to `C=CCN(CC=C)CCCOCCO` [Ref 3], for which, in series [2], the “solubility … THF” value is given as “Excellent” and the “dissolution in the solvent(s)” value is listed as “dissolved in a solvent”.
With `C=CCN(CC=C)CCCOCCOCCO` [Ref 4], in series [2], the “solubility … THF” value is given as “Excellent” and the “dissolution in the solvent(s)” value was “dissolved in a solvent”.
Taken in the same sequence, the figures for `O=C1c2ccccc2C(=O)N1CCCOCCOCCOCCO` [Ref 5] were “Excellent” and “dissolved in a solvent”.
Regarding `OCCOCCOCCOCCCN(Cc1ccccc1)Cc1ccccc1` [Ref 8], in series [2], the “solubility … THF” value is reported as “Excellent” and the “dissolution in the solvent(s)” value was “dissolved in a solvent”.
Regarding `C=CCN(CC=C)CCCCCCO` [Ref 11], in series [2], the “solubility … Toluene” value is “Excellent” and the “dissolution in the solvent(s)” value is on record as “dissolved in a solvent”.
With `CC[Si](CC)(CC)N(CCCOCCO)[Si](CC)(CC)CC` [iA], the “Precipitation of a salt and cloudiness” value in series [3] ((IA) mass/THF solution mass=22.3 wt.%, prepared with potassium naphthalene) is on record as “not observed”; in series [3] ((IA) mass/THF solution mass=39.8 wt.%, prepared with potassium hydride), “not observed”.
